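Five compound concentrations were applied to cells in 96-well plates for 48 hours; endpoints were derived by simple linear interpolation of the resulting dose-response curve. Abbreviation: GI50, concentration required for 50% inhibition of growth. TGI: concentration producing complete growth inhibition.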
Tests used:
Assay in all cases: NCI-60 cell line screen, 48 h
DU-145 prostate = tested on: DU-145 prostate
SNB-75 CNS = tested on: SNB-75 CNS
LOX IMVI melanoma = tested on: LOX IMVI melanoma
SF-268 CNS = tested on: SF-268 CNS
K-562 leukemia = tested on: K-562 leukemia
OVCAR-5 ovarian = tested on: OVCAR-5 ovarian
NCI/ADR-RES ovarian = tested on: NCI/ADR-RES ovarian
MDA-MB-231 breast = tested on: MDA-MB-231 breast
SW-620 colon = tested on: SW-620 colon
TK-10 renal = tested on: TK-10 renal

Row | Structure (SMILES) | GI50 (DU-145 prostate) [µM] | TGI (DU-145 prostate) [µM] | GI50 (SNB-75 CNS) [µM] | TGI (SNB-75 CNS) [µM] | GI50 (LOX IMVI melanoma) [µM] | TGI (LOX IMVI melanoma) [µM] | GI50 (SF-268 CNS) [µM] | TGI (SF-268 CNS) [µM] | GI50 (K-562 leukemia) [µM] | TGI (K-562 leukemia) [µM] | GI50 (OVCAR-5 ovarian) [µM] | TGI (OVCAR-5 ovarian) [µM] | GI50 (NCI/ADR-RES ovarian) [µM] | TGI (NCI/ADR-RES ovarian) [µM] | GI50 (MDA-MB-231 breast) [µM] | TGI (MDA-MB-231 breast) [µM] | GI50 (SW-620 colon) [µM] | TGI (SW-620 colon) [µM] | GI50 (TK-10 renal) [µM] | TGI (TK-10 renal) [µM]
1 | Cc1noc(C)c1-c1cc(O)cc(C(O)c2ccccc2)c1 (centres undefined) | 69.5 | > 100 | 0.423 | > 100 | 3.6 | 80.5 | 39.3 | > 100 | 8.69 | > 100 | 31.8 | > 100 | 6.32 | > 100 | 3.92 | > 100 | 24.6 | > 100 | 3.99 | > 100
2 | O=C(c1ccco1)c1nc2cc(F)ccc2[n+]([O-])c1C(F)(F)F | 38.8 | > 100 | 24.5 | 86.6 | 19.4 | 39.2 | 39.2 | > 100 | 9.59 | 47.9 | 26.7 | 90.6 | 21.5 | 66.5 | 22.6 | 60.5 | > 100 | > 100 | 85.3 | > 100
3 | N#Cc1ccc(N2Cc3ccccc3OC3=C2C(=O)c2c(O)ccc(O)c2C3=O)cc1 | 0.307 | 0.919 | 0.66 | 2.68 | 0.166 | 0.44 | 0.598 | 1.72 | 0.071 | – | 0.437 | 1.58 | 0.611 | 6.8 | 0.242 | 0.994 | 0.0906 | 0.306 | 0.118 | 0.265

Reference: PubChem BioAssay (NCI)
